Data from US4883808A, “Condensation products of cyclic diketones and ascorbic acid as immunomodulatory agents” (American Biotechnology Company, priority 1988, dated 1989).

Columns and labels:
[1] = system: T- and B-lymphocytes isolated from mouse spleens; assay: lymphocyte blastogenesis assay (mouse spleen lymphocytes, C-14 methyl thymidine uptake); type: cell-based; set-up: LPS 5.0 (lymphocyte blastogenesis) / RPMI (lymphocyte blastogenesis): unit not given here; conditions: for LPS 5.0 (lymphocyte blastogenesis) / % CHANGE (LPS): LPS 5.0 MG/KG; for % CHANGE (LPS) / % CHANGE (PHA): vs 0 mg/kg; for PHA 10.0 (lymphocyte blastogenesis) / % CHANGE (PHA): PHA 10.0 UG/KG; for RPMI (lymphocyte blastogenesis): media, no mitogen
Source text: One of these tests is the lymphocyte blastogenesis assay which measures the ability of the compound under test to affect DNA synthesis and mitosis of T- and B- lymphocytes isolated from mouse spleens.
Mitogens are substances which stimulate DNA synthesis and mitosis. The mitogens used in these studies were phytohemaglutinin (PHA) which is isolated from the red kidney bean and a lipopolysacharide isolated from Salmonella tythimurium (LPS).
The lymphocyte blastogenesis test is a method to assess the ability of immunocompetent T- or B-cells to respond to mitogens or a specific antigen. It may be performed on lymphocytes obtained from mice treated with immunostimulators in vivo or the entire assay can be performed in vitro. The assay as described below uses minimal doses of polyclonal mitogens to induce blastogenesis (proliferation measured by DNA synthesis), in order to be able to assess the phenomena of amplification.
The lymphocyte blastogenesis test is carried out as follows:
1. Sacrifice two mice/experimental group by cervical dislocation.
2. Immerse mice in a mild disinfectant solution (Povadyne).
3. Remove spleens and place in a sterile 6 well plate containing 5 ml/well of RPMI-1640.
4. Make a single cell suspension by mincing spleens with a sterile toothed forcep.
5. Place cell suspension in a sterile centrifuge tube and allow large clumps to settle for 10 minutes.
6. Remove single cell suspension by pipetting supernatant into another sterile centrifuge tube.
7. Centrifuge cell suspension for 10 mins. at 1100 RPM in GLC-2B.
8. Aseptically remove supernatant and discard.
9. Resuspend cell button in 5 mls of RPMI-1640, and centrifuge. Wash cells in this manner two more times.
10. Resuspend cells in 5 mls of RPMI-1640 containing 10-15% Human AB heat-inactivated (Pel-Freeze, Rogers, AR or BioBee, Boston, MA).
11. Perform viable cell count using 0.25% trypan blue exclusion dye made in physiological isotonic saline. Non-viable cells stain blue.
12. Adjust viable cell concentration to […] in RPMI-1640 containing human AB sera.
13. Aliquot in sextuplicate wells of a 96 well sterile round bottom tissue culture plate with 0.1 ml/well of the various cell suspensions to be tested.
14. Add to above replicate sextuplicate cells selected quantities of mitogen.
15. Include in the experiment a control plate which contains the same cell groups as above, but receive a 0.1 ml of media instead of mitogen.
16. Humidify plate by filling outside wells of plate with media.
17. Incubate plates at […] with 5% CO-2 for 48 hours.
18. After 48 hours all wells receive 0.025 mls of a 0.4 microcurie/ml solution of C-14 methyl thymidine and incubate at 37 C, 5% CO-2 for 18 hours.
19. The cells are harvested using a Brandel M-12 Cell Harvestor (Brandel, Rockfille, MD) onto filter paper discs using phosphate buffered saline at physiological osmolarity. (285-320 mos).
20. The filter paper disks are placed into Packard mini-scintillation vials and allowed to dry for 18 hours.
21. Once dried, the vials are filled with 2 mls of a scintillation cocktail containing 4 liters of scintillation grade toluene, 16.0 g of 2,5-diphenyloxazole (PPO) and 0.4 g of 1,4-Bis (2-(5-Phenyloxazoly) benzene (POPOP).
22. The vials are counted in a LKB 1212 Rackbeta (LKB Instruments, Gaithersburg, MD) Liquid scintillation counter for two minutes/vial.

[2] = system: adenovirus type 2; assay: antiviral test of Sidewell and Huffman, adenovirus type 2 in HEp-2 cells; type: cell-based; conditions: HEp-2 target cell
Description: The virus rating (VR) of Compound A of this invention when tested in accordance with the method of Sidewell and Huffman (Appl. Microbiol. 22:795-801, 1971) against adenovirus type 2 utilizing HEp-2 as the target cell was greater than 0.2. […] The minimum toxic concentration (MTC) was greater than 320 μg/ml.

[3] = system: feline leukemia virus; assay: antiviral test of Sidewell and Huffman, feline leukemia virus in 81C cells; type: cell-based, feline leukemia virus (81C feline kidney cell); conditions: 81C cell line
Description: The virus rating (VR) of Compound A of this invention when tested in accordance with the method of […] and Huffman (Appl. Microbiol. 22:795-801, 1971) against adenovirus type 2 utilizing HEp-2 as the target cell was greater than 0.2. […] The minimum toxic concentration (MTC) was greater than 320 μg/ml. The same compound was also tested against feline leukemia virus by the […] and Huffman procedure using the […] cell line as the target. The […] cell is a feline kidney cell transformed with a murine leukemia virus (ras gene +) with the following results. The therapeutic index of the compound which is a measure of the compounds ability to protect the cell against the virus without adversely affecting cell growth was 22.

<3,4'>-hemiketal-<3,6>-ketal of 2-(1',4'-diketo-3'-cyclohexyl)-2-hydroxy-3-keto-4-dihydroxyethylbutyrolactone [Compound B]
LPS 5.0 (lymphocyte blastogenesis) ([1]; 12.5 mg/kg): 7195 ± 90 | % CHANGE (LPS) ([1]; 12.5 mg/kg): +2.2% | PHA 10.0 (lymphocyte blastogenesis) ([1]; 12.5 mg/kg): 7126 ± 1104 | % CHANGE (PHA) ([1]; 12.5 mg/kg): -3.8% | RPMI (lymphocyte blastogenesis) ([1]; 12.5 mg/kg): 605 ± 117 | LPS 5.0 (lymphocyte blastogenesis) ([1]; 25 mg/kg): 8580 ± 507 | % CHANGE (LPS) ([1]; 25 mg/kg): +21.9% | PHA 10.0 (lymphocyte blastogenesis) ([1]; 25 mg/kg): 7563 ± 2053 | % CHANGE (PHA) ([1]; 25 mg/kg): +2.1% | RPMI (lymphocyte blastogenesis) ([1]; 25 mg/kg): 1392 ± 247 | LPS 5.0 (lymphocyte blastogenesis) ([1]; 50 mg/kg): 6823 ± 1305 | PHA 10.0 (lymphocyte blastogenesis) ([1]; 50 mg/kg): 10218 ± 2630 | % CHANGE (PHA) ([1]; 50 mg/kg): +37.9% | RPMI (lymphocyte blastogenesis) ([1]; 50 mg/kg): 1041 ± 687 | LPS 5.0 (lymphocyte blastogenesis) ([1]; 100 mg/kg): 8423 ± 351 | % CHANGE (LPS) ([1]; 100 mg/kg): +19.6% | PHA 10.0 (lymphocyte blastogenesis) ([1]; 100 mg/kg): 9258 ± 1391 | % CHANGE (PHA) ([1]; 100 mg/kg): +24.9% | RPMI (lymphocyte blastogenesis) ([1]; 100 mg/kg): 705 ± 314 | LPS 5.0 (lymphocyte blastogenesis) ([1]; 200 mg/kg): 8025 ± 1670 | % CHANGE (LPS) ([1]; 200 mg/kg): +14% | PHA 10.0 (lymphocyte blastogenesis) ([1]; 200 mg/kg): 8111 ± 896 | % CHANGE (PHA) ([1]; 200 mg/kg): +9.4% | RPMI (lymphocyte blastogenesis) ([1]; 200 mg/kg): 660 ± 354

<3,3'>-hemiketal-<3,6>-ketal of 2-(1',3'-diketo-4'-cyclopentyl)-2-hydroxy-3-keto-4-dihydroxyethylbutyrolactone [Compound A]
minimum toxic concentration (MTC) [2]: greater than 320 μg/ml | ID50 (concentration that causes 50% reduction in virus replication) ([2]; adenovirus type 2): 505.19 µg/mL | virus rating (VR) ([2]; adenovirus type 2): greater than 0.2 | MTC (minimum toxic concentration) [3]: 100 | ID50 (concentration in μg./ml that causes 50% reduction in virus replication) ([3]; feline leukemia virus): 4.5 µg/mL | VR (virus rating) ([3]; feline leukemia virus, control 0.98): 1.1
